These are literature values, as cited in US7439254B2, “Compounds, compositions, and methods” (Cytokinetics, Inc., priority 2003, dated 2008).

SMILES strings stand for the structures.

The data set concerns A549 cells. The note with it: data provided by National Cancer Institute, Developmental Therapeutic Program.
Broadly, the GI50 is the concentration at which growth is held to half of that of the control. Take `NC(=O)NO` [hydroxyurea]: the GI50 was 500000 nM.
As to `O=c1[nH]cc(F)c(=O)[nH]1` [5-fluorouracil], the GI50 was 1000 nM.
Take `CC(=O)O[C@H]1C(=O)[C@@]2(C)[C@H]([C@H](OC(=O)c3ccccc3)[C@]3(O)C[C@H](OC(=O)[C@H](O)[C@@H](NC(=O)c4ccccc4)c4ccccc4)C(C)=C1C3(C)C)[C@]1(OC(C)=O)CO[C@@H]1C[C@@H]2O` [paclitaxel]: the 50% growth inhibitory concentration (GI50) is 4 nM.
Take `COc1cccc2c1C(=O)c1c(O)c3c(c(O)c1C2=O)C[C@@](O)(C(=O)CO)C[C@@H]3O[C@H]1C[C@H](N)[C@H](O)[C@H](C)O1` [doxorubicin]: the GI50 is 63 nM.
